According to ChEMBL document CHEMBL3745715, “Sulfonamide inhibition studies of the α-carbonic anhydrase from the gammaproteobacterium Thiomicrospira crunogena XCL-2, TcruCA” (Bioorg Med Chem Lett, 2016):

Assays:
[1] = biological target: Carbonic anhydrase, alpha family (Thiomicrospira crunogena, UniProt Q31FD6)
Description: Inhibition of recombinant Thiomicrospira crunogena XCL-2 carbonic anhydrase by stopped flow CO2 hydrase assay

Carbonate dehydratase = biological target: T1, Carbonate dehydratase (Sulfurihydrogenibium sp. (strain YO3AOP1), UniProt B2V8E3)
T1 sequence (B2V8E3 whole entry): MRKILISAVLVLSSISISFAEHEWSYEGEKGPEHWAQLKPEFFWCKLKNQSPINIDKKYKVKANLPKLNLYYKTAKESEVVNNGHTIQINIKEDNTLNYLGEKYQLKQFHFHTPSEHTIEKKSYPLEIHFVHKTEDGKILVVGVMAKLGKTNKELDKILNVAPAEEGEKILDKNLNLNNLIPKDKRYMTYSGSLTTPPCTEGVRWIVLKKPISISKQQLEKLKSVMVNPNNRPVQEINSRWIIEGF
Description: Inhibition of recombinant Sulfurihydrogenibium yellowstonense YO3AOP1 carbonic anhydrase by stopped flow CO2 hydrase assay

Chain of Carbonic anhydrase, alpha family (Q31FD6 whole entry): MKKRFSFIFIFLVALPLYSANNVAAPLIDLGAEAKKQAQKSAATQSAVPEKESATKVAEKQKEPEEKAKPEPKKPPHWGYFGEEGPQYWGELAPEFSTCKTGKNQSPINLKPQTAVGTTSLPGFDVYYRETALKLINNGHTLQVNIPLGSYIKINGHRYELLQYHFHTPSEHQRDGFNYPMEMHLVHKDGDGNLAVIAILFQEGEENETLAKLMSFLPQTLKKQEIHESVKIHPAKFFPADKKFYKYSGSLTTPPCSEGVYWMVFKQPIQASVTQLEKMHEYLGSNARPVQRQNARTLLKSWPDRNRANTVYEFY

Row | SMILES | Ki [1] [nM] | Ki (Carbonate dehydratase) [nM]
1 | Nc1ccc(S(N)(=O)=O)cc1Br | 545 | 75.7
2 | NCc1ccc(S(N)(=O)=O)cc1 [MAFENIDE] | 202 | 350
3 | NS(=O)(=O)c1ccc(CO)cc1 | 21.2 | 493
4 | NNc1ccccc1S(N)(=O)=O | 71.4 | 695
5 | Nc1cc(Cl)c(S(N)(=O)=O)cc1S(N)(=O)=O | 54.4 | 
6 | Nc1cc(C(F)(F)F)c(S(N)(=O)=O)cc1S(N)(=O)=O [2,4-DISULFAMYLTRIFLUOROMETHYLANILINE] | 67.2 | 
7 | Nc1ccc(S(N)(=O)=O)cc1I |  | 44.8
8 | Cc1ccc(-c2cc(C(F)(F)F)nn2-c2ccc(S(N)(=O)=O)cc2)cc1 [CELECOXIB] | 981 | 6.9
9 | Nc1ccc(S(=O)(=O)NCCc2ccc(S(N)(=O)=O)cc2)cc1 | 402 | 9.7
10 | Nc1ccc(S(N)(=O)=O)cc1 [SULFANILAMIDE] | 628 | 652
11 | CCOc1ccc2nc(S(N)(=O)=O)sc2c1 [ETHOXZOLAMIDE] | 4.1 | 
12 | NS(=O)(=O)c1nnc(NS(=O)(=O)c2ccccc2)s1 [BENZOLAMIDE] | 2.7 | 
13 | NS(=O)(=O)c1nnc(-c2ccccc2Cl)s1 | 2.5 | 70.1
14 | CC1(C)O[C@@H]2[C@@H](CO[C@@]3(COS(N)(=O)=O)OC(C)(C)O[C@@H]23)O1 [TOPIRAMATE] | 769 | 6.6
15 | O=C1NS(=O)(=O)c2ccccc21 [SACCHARIN] | 933 | 876
16 | Nc1ccc(S(=O)(=O)NCc2ccc(S(N)(=O)=O)cc2)cc1 | 454 | 7.8
17 | NNc1ccc(S(N)(=O)=O)cc1 | 84.5 | 803
18 | NCCc1ccc(S(N)(=O)=O)cc1 | 488 | 
19 | Nc1nnc(S(N)(=O)=O)s1 | 27.9 | 137
20 | Nc1ccc(S(=O)(=O)Nc2nnc(S(N)(=O)=O)s2)cc1 | 5.6 | 5.5
21 | Nc1nccc(Nc2ccc(S(N)(=O)=O)cc2)n1 | 92.3 | 6.5
22 | NS(=O)(=O)c1nc2ccc(O)cc2s1 | 40.7 | 
23 | CCN[C@H]1CN(CCCOC)S(=O)(=O)c2sc(S(N)(=O)=O)cc21 [BRINZOLAMIDE] | 4.2 | 12.3
24 | Cc1ccc(S(N)(=O)=O)cc1 [P-TOLUENESULFONAMIDE] | 244 | 848
25 | NS(=O)(=O)c1ccc(CCO)cc1 | 31.5 | 162
26 | Nc1ccc(S(N)(=O)=O)cc1F | 82.1 | 68.3
27 | NS(=O)(=O)c1ccc(C(=O)O)cc1 [CARZENIDE] | 85.2 | 72.4
28 | Cn1nc(S(N)(=O)=O)sc1=N | 4.8 | 433
29 | Nc1ccc(S(N)(=O)=O)cc1Cl | 79.7 | 41.2
